In article PMC9750798, “A metabotropic glutamate receptor affects the growth and development of Schistosoma japonicum” (Frontiers in Microbiology, 2022):

Biological target: T1, SjGRM7 (Schistosoma japonicum, UniProt A0A4Z2D6G5)
T1 construct: gene EWB00_004136; S. mansoni homologue is Smp_128940
T1 sequence (A0A4Z2D6G5 24-1036): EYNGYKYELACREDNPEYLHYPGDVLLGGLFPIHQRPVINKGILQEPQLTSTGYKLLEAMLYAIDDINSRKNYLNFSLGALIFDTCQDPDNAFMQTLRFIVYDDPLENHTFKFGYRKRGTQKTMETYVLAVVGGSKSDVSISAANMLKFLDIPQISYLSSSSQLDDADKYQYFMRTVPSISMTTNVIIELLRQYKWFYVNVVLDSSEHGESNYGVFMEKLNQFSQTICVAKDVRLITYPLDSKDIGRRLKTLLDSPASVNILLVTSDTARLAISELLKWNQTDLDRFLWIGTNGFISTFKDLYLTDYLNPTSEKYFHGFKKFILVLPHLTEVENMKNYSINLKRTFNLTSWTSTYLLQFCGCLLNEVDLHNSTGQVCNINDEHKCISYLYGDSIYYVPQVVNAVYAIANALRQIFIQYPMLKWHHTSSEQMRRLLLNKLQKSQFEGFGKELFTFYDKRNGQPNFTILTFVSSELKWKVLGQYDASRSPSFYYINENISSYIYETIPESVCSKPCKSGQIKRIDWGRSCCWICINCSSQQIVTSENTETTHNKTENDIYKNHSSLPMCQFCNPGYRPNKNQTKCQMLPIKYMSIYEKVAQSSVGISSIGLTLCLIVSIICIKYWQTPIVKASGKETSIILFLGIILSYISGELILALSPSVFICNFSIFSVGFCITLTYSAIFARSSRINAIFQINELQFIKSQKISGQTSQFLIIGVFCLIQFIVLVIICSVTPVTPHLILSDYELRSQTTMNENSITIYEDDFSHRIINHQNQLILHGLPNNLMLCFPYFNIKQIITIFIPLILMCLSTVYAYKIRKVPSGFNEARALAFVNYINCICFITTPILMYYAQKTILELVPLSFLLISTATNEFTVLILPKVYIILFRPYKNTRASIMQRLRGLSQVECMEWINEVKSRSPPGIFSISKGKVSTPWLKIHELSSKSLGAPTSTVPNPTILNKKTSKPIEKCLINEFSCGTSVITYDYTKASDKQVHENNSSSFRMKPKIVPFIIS
Test: Fluo-4 calcium mobilization in transfected HEK293T cells
Type: cell-based
Settings: agonist; co-expressed G-alpha16; dose series

N[C@@H](CCC(=O)O)C(=O)O [L-glutamate]
Fluo-4 calcium mobilization in transfected HEK293T cells: SjGRM and SjGRM7 responded only to L-glutamate
